Values joined by “and” are separate entries in the source; they are usually repeats but may differ in a detail not shown here. Equal entries are not always repeated. Where two headings read alike, the source gives them in different places.
Tests used:
[1] = system: SARS-CoV-2, isolate USA-WA1/2020; assay: microbe, parasite or virus in culture; type: cell-based
[2] = Protein binding; type: in vitro ADME
From the text: Supplement media-1.zip/Protein_Binding.csv, table | column: fu; perc_bound; perc_free; perc_recovered

[3] = target: T1, mu (MOP) (h) (Homo sapiens, UniProt P35372); assay: In vitro CEREP profiling, mu (MOP) (h) (agonist radioligand); type: binding; details: test compound concentration 10 uM
T1 construct: purchased Eurofins Cerep (SafetyScreen44), recognised from the panel format
From the text: (§1) Supplement media-1.zip/Safety_Panel_Profile.csv, table | column: perc_inhibition

[4] = target: T2, Lck kinase (h) (Homo sapiens, UniProt P06239); assay: In vitro CEREP profiling, Lck kinase (h); type: biochemical; details: test compound concentration 10 uM, Enzyme and Cell-based assays
T2 construct: purchased Eurofins Cerep (SafetyScreen44), recognised from the panel format
From the text: as §1

[5] = target: T3, COX2(h) (Homo sapiens, UniProt P35354); assay: In vitro CEREP profiling, COX2(h); type: biochemical; details: test compound concentration 10 uM, Enzyme and Cell-based assays
T3 construct: purchased Eurofins Cerep (SafetyScreen44), recognised from the panel format
T3 sequence (P35354 18-604): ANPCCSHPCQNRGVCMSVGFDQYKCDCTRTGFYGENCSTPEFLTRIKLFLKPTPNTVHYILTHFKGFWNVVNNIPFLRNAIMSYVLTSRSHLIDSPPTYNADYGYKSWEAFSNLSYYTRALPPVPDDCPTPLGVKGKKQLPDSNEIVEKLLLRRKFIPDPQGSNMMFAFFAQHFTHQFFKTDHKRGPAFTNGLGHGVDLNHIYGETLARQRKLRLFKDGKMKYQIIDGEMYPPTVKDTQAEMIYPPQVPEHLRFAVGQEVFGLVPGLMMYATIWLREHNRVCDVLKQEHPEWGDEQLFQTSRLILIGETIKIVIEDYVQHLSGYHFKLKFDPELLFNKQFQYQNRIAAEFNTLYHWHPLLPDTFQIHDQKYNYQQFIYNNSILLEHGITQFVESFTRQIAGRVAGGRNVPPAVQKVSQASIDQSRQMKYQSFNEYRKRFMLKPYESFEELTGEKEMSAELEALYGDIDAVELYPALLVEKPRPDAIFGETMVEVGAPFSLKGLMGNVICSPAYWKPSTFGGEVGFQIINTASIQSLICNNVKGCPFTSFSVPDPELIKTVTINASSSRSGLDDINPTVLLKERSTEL
From the text: as §1

[6] = target: T4, 5-HT1A (h) (Homo sapiens, UniProt P08908); assay: In vitro CEREP profiling, 5-HT1A (h) (agonist radioligand); type: binding; details: test compound concentration 10 uM
T4 construct: purchased Eurofins Cerep (SafetyScreen44), recognised from the panel format
T4 sequence (P08908 1-422): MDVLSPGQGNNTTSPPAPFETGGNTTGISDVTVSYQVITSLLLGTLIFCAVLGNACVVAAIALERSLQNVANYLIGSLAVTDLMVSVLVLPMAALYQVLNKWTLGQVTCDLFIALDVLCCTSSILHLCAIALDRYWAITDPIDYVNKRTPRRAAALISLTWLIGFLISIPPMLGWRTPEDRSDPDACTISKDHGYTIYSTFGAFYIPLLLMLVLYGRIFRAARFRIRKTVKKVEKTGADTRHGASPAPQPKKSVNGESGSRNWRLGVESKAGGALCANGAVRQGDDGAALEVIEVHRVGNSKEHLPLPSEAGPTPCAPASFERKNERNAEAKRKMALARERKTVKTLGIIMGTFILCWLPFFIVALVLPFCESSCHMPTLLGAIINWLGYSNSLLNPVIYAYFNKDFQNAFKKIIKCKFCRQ
From the text: as §1

[7] = target: T5, beta1 (h) (Homo sapiens, UniProt P08588); assay: In vitro CEREP profiling, beta1 (h) (agonist radioligand); type: binding; details: test compound 10 uM
T5 construct: purchased Eurofins Cerep (SafetyScreen44), recognised from the panel format
From the text: as §1

[8] = target: T6, PDE4D2 (h) (Homo sapiens, UniProt Q08499); assay: In vitro CEREP profiling, PDE4D2 (h); type: biochemical; details: test compound concentration 10 uM, Enzyme and Cell-based assays
T6 construct: purchased Eurofins Cerep (SafetyScreen44), recognised from the panel format
From the text: as §1

[9] = target: T7, 5-HT transporter (h) (Homo sapiens, UniProt P31645); assay: In vitro CEREP profiling, 5-HT transporter (h) (antagonist radioligand); details: test compound concentration 10 uM
T7 construct: purchased Eurofins Cerep (SafetyScreen44), recognised from the panel format
From the text: as §1

[10] = target: T8, dopamine transporter (h) (Homo sapiens, UniProt Q01959); assay: In vitro CEREP profiling, dopamine transporter (h) (antagonist radioligand); type: binding; details: test compound concentration 10 uM
T8 construct: purchased Eurofins Cerep (SafetyScreen44), recognised from the panel format
From the text: as §1

[11] = target: T9, A2A (h) (Homo sapiens, UniProt P29274); assay: In vitro CEREP profiling, A2A (h) (agonist radioligand); type: binding; details: test compound 10 uM
T9 construct: purchased Eurofins Cerep (SafetyScreen44), recognised from the panel format
From the text: as §1

[12] = system: MERS-CoV; assay: microbe, parasite or virus in culture; type: cell-based; details: for perc_max_measured: maximum measured response of dose series; for perc_min_measured: minimum measured response of dose series
[13] = target: T10, norepinephrine transporter (h) (Homo sapiens, UniProt P23975); assay: In vitro CEREP profiling, norepinephrine transporter (h) (antagonist radioligand); type: binding; details: test compound concentration 10 uM
T10 construct: purchased Eurofins Cerep (SafetyScreen44), recognised from the panel format
From the text: as §1

[14] = HeLa-ACE2 SARS-CoV-2 antiviral effect without P-gp inhibitor, maximum measured response
[15] = HeLa-ACE2 SARS-CoV-2 antiviral effect without P-gp inhibitor, maximum measured response of dose series
[16] = HeLa-ACE2 SARS-CoV-2 antiviral effect without P-gp inhibitor, minimum measured response
[17] = HeLa-ACE2 SARS-CoV-2 antiviral effect without P-gp inhibitor, minimum measured response of dose series
[18] = HeLa-ACE2 SARS-CoV-2 antiviral effect without P-gp inhibitor, read-out: ec90
[19] = In vitro dog plasma protein binding
[20] = In vitro fetal calf serum protein binding
[21] = In vitro human plasma protein binding
[22] = In vitro mouse plasma protein binding
[23] = In vitro rat plasma protein binding
[24] = Vero E6/TMPRSS2 MERS-CoV antiviral effect with P-gp inhibitor
[25] = Severe acute respiratory syndrome coronavirus 2, HeLa-ACE2
[26] = read-out: perc_inhibition (% inhibition of the binding of a ligand specific for each target)
[27] = read-out: perc_inhibition, % inhibition of the binding of a ligand specific for each target
[28] = Middle East respiratory syndrome-related coronavirus, VeroE6/TMPRSS2

T5 sequence (P08588 whole entry): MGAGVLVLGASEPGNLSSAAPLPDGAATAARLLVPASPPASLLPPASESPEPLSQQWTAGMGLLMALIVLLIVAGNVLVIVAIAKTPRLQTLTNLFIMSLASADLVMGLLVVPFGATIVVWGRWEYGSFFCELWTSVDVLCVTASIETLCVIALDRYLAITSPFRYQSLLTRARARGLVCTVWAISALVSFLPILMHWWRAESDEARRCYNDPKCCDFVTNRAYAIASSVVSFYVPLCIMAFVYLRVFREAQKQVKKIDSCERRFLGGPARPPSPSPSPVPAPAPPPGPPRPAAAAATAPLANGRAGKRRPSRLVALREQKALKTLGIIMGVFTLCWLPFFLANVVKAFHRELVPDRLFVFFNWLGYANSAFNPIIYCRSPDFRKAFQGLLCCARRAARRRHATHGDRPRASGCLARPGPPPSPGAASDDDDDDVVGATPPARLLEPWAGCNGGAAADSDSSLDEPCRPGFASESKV
T8 sequence (Q01959 whole entry): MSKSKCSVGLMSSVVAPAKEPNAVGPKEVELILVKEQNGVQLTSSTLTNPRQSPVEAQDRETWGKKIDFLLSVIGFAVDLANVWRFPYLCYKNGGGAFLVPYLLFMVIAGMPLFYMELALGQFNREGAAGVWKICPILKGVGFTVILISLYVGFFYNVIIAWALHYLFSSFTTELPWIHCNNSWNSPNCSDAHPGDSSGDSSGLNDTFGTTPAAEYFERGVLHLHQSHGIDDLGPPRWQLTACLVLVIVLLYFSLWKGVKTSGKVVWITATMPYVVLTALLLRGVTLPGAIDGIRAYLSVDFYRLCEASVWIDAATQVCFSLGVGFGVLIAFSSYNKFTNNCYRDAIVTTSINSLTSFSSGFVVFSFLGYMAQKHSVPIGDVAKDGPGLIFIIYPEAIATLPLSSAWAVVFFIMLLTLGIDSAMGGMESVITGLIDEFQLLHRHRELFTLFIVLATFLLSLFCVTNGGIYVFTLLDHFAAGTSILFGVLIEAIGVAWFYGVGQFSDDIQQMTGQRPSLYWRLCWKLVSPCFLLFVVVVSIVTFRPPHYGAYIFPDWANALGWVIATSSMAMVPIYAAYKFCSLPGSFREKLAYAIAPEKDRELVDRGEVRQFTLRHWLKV
T10 sequence (P23975 whole entry): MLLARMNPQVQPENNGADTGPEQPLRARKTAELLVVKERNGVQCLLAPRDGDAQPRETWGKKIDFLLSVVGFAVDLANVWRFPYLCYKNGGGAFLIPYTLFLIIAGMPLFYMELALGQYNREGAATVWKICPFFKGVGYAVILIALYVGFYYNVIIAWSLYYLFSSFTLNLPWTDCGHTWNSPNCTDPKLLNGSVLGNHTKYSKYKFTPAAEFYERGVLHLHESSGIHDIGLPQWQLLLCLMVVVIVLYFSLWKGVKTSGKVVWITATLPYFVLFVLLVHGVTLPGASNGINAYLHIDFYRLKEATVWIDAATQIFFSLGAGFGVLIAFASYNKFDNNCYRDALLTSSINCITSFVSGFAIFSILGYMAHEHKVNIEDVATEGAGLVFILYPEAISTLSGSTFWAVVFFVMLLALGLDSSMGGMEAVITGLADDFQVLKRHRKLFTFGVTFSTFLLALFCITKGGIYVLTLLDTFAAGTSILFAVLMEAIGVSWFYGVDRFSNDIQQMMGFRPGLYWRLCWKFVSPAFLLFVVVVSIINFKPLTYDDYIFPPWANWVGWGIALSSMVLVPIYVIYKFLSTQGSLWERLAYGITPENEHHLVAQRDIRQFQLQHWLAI
T1 sequence (P35372 whole entry): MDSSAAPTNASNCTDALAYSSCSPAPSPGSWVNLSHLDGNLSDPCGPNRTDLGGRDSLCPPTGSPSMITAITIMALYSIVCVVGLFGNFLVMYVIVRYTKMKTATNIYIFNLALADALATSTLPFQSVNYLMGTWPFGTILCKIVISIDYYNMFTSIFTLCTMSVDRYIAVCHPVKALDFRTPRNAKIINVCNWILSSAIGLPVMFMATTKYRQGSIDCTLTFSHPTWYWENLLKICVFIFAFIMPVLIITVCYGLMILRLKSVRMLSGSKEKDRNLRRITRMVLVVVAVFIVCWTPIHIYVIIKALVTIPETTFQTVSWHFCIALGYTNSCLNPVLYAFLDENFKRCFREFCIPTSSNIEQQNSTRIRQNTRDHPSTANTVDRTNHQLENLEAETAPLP
T7 sequence (P31645 whole entry): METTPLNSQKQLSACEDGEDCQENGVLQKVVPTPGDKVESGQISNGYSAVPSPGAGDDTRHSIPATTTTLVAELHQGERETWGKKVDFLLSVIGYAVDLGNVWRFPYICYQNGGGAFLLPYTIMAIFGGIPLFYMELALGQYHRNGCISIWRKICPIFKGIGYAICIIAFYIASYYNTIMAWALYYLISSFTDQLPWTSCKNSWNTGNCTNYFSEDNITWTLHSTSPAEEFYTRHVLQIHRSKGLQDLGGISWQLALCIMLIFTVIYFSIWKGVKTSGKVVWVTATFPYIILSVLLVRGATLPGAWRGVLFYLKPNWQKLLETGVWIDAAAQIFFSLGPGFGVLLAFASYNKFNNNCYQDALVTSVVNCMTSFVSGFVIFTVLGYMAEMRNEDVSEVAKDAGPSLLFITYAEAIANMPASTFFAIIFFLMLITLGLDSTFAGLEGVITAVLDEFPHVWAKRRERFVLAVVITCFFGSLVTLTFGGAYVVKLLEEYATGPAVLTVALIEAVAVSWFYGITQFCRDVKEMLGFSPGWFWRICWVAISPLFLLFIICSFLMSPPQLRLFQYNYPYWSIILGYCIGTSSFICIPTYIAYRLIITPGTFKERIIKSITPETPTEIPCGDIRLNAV
T6 sequence (Q08499 303-809): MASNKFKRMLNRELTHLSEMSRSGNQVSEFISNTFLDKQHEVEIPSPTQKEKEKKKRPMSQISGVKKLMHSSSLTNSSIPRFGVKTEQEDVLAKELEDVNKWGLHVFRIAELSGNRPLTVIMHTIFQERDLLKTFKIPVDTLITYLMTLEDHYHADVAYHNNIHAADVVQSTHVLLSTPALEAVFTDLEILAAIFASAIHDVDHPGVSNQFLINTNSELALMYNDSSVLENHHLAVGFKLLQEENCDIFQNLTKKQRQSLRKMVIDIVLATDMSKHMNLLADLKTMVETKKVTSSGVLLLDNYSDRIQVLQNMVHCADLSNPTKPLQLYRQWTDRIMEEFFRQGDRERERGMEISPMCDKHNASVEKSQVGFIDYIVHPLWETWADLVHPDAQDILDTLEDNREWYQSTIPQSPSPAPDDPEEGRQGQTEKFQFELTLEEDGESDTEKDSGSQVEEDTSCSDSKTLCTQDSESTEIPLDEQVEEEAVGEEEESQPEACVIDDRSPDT
T9 sequence (P29274 whole entry): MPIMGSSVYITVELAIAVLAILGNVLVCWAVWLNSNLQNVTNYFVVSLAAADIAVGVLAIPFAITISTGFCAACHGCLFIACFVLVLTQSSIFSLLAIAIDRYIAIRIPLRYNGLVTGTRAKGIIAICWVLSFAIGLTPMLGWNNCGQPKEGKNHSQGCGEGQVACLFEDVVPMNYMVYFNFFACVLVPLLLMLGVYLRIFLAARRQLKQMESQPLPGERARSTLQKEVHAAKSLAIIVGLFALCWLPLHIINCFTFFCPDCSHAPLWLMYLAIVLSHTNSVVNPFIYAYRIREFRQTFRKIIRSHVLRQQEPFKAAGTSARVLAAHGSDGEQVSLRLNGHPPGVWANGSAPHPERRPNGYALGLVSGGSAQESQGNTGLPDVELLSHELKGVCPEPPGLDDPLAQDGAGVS
T2 sequence (P06239 whole entry): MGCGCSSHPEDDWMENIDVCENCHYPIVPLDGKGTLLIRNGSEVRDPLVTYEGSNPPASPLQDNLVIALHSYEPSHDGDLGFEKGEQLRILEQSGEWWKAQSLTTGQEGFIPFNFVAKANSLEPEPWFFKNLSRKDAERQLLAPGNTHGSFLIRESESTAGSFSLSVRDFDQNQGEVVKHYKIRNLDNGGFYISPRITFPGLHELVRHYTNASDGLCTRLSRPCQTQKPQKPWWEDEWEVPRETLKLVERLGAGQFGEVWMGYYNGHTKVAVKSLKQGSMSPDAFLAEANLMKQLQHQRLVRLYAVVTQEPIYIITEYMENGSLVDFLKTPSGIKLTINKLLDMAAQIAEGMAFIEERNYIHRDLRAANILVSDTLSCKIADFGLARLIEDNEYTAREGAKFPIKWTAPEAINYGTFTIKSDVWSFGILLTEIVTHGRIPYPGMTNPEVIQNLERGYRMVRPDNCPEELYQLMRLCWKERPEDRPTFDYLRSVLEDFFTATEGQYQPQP

CC(C)[C@@H](Nc1ncnc2[nH]c(-c3cnn(C)c3C#N)cc12)c1ccc2c(n1)OCCO2 [ASAP-0010716]
perc_max_measured [1, 14]: 105.062%
perc_max_measured [1, 15]: 119.294%
perc_min_measured [1, 16]: 1.471%
perc_min_measured [1, 17]: 1.653%
EC90 [1, 18]: 7.55 µM and 9.22 µM
fu [2, 19]: 0.029
perc_bound [2, 19]: 97.1%
perc_free [2, 19]: 2.93%
perc_recovered [2, 19]: 91.53%
fu [2, 20]: 0.038
perc_bound [2, 20]: 96.2%
perc_free [2, 20]: 3.84%
perc_recovered [2, 20]: 96.46%
fu [2, 21]: 0.005
perc_bound [2, 21]: 99.5%
perc_free [2, 21]: 0.507%
perc_recovered [2, 21]: 111.8%
fu [2, 22]: 0.027
perc_bound [2, 22]: 97.3%
perc_free [2, 22]: 2.67%
perc_recovered [2, 22]: 94.71%
fu [2, 23]: 0.022
perc_bound [2, 23]: 97.8%
perc_free [2, 23]: 2.16%
perc_recovered [2, 23]: 100.0%
perc_inhibition (% inhibition of the binding of a ligand specific for each target) [3]: 77%
perc_inhibition: % inhibition of control enzyme activity, Lck kinase (h) [4]: 34%
perc_inhibition: % inhibition of control enzyme activity, COX2(h) [5]: -7%
perc_inhibition (% inhibition of the binding of a ligand specific for each target) [6]: 22%
perc_inhibition (% inhibition of the binding of a ligand specific for each target) [7]: -2%
perc_inhibition: % inhibition of control enzyme activity, PDE4D2 (h) [8]: 44%
perc_inhibition: % inhibition of the binding of a ligand specific for each target, 5-HT transporter (h) (antagonist radioligand) [9]: 9%
perc_inhibition (% inhibition of the binding of a ligand specific for each target) [10]: 30%
perc_inhibition (% inhibition of the binding of a ligand specific for each target) [11]: 69%
perc_max_measured [12, 24]: 144.33% and 125.176%
perc_min_measured [12, 24]: 55.976% and 101.272%
EC50 ([12]; Vero E6/TMPRSS2 MERS-CoV antiviral effect with P-gp inhibitor, read-out: ec50): > 5 µM
EC90 ([12]; Vero E6/TMPRSS2 MERS-CoV antiviral effect with P-gp inhibitor, read-out: ec90): > 5 µM
perc_inhibition (% inhibition of the binding of a ligand specific for each target) [13]: 4%

Cn1ncc(-c2cc3c(N[C@@H](c4ccc5c(n4)OCCO5)C(C)(C)C)ncnc3[nH]2)c1C#N [ASAP-0011221]
perc_max_measured [1, 14]: 101.751%
perc_max_measured [1, 15]: 108.122%
perc_min_measured [1, 16]: 4.671%
perc_min_measured [1, 17]: 8.006%
EC50 ([1]; HeLa-ACE2 SARS-CoV-2 antiviral effect without P-gp inhibitor, read-out: ec50): 1.49 µM and 1.6 µM
EC90 [1, 18]: > 20 µM
fu [2, 19]: 0.012
perc_bound [2, 19]: 98.8%
perc_free [2, 19]: 1.2%
perc_recovered [2, 19]: 99.93%
fu [2, 20]: 0.021
perc_bound [2, 20]: 97.9%
perc_free [2, 20]: 2.13%
perc_recovered [2, 20]: 99.13%
fu [2, 21]: 0.006
perc_bound [2, 21]: 99.4%
perc_free [2, 21]: 0.571%
perc_recovered [2, 21]: 99.19%
fu [2, 22]: 0.011
perc_bound [2, 22]: 98.9%
perc_free [2, 22]: 1.06%
perc_recovered [2, 22]: 98.18%
fu [2, 23]: 0.018
perc_bound [2, 23]: 98.2%
perc_free [2, 23]: 1.83%
perc_recovered [2, 23]: 90.47%
perc_inhibition (% inhibition of the binding of a ligand specific for each target) [3]: 28%
perc_inhibition: % inhibition of control enzyme activity, Lck kinase (h) [4]: 47%
perc_inhibition: % inhibition of control enzyme activity, COX2(h) [5]: -9%
perc_inhibition (% inhibition of the binding of a ligand specific for each target) [6]: 15%
perc_inhibition (% inhibition of the binding of a ligand specific for each target) [7]: 11%
perc_inhibition: % inhibition of control enzyme activity, PDE4D2 (h) [8]: 20%
perc_inhibition: % inhibition of the binding of a ligand specific for each target, 5-HT transporter (h) (antagonist radioligand) [9]: 2%
perc_inhibition (% inhibition of the binding of a ligand specific for each target) [10]: 50%
perc_inhibition (% inhibition of the binding of a ligand specific for each target) [11]: 52%
perc_inhibition (% inhibition of the binding of a ligand specific for each target) [13]: 27%

Cc1nn(C)cc1-c1cc2c(NC(c3ccc4c(c3)S(=O)(=O)CCC4)C(C)C)ncnc2[nH]1 (stereo not drawn) [ASAP-0011446]
perc_max_measured [1, 14]: 111.189%
perc_max_measured [1, 15]: 120.747%
perc_min_measured [1, 16]: 56.402%
perc_min_measured [1, 17]: 82.491%
EC50 [1, 25]: > 20 µM
EC90 [1, 25]: > 20 µM
EC50 ([1]; Severe acute respiratory syndrome coronavirus 2, HeLa-ACE2, read-out: HelaACE2 EC50): > 20 µM
inhibition at 10 µM [3, 26]: 28%
inhibition at 10 µM ([4]; read-out: perc_inhibition: % inhibition of control enzyme activity, Lck kinase (h)): 33%
inhibition at 10 µM ([5]; read-out: perc_inhibition: % inhibition of control enzyme activity, COX2(h)): 23%
inhibition at 10 µM [6, 26]: 10%
inhibition at 10 µM [7, 26]: 1%
inhibition at 10 µM ([8]; read-out: perc_inhibition: % inhibition of control enzyme activity, PDE4D2 (h)): 43%
perc_inhibition: % inhibition of the binding of a ligand specific for each target, 5-HT transporter (h) (antagonist radioligand) [9]: -4%
inhibition at 10 µM [10, 27]: 13%
inhibition at 10 µM [11, 26]: 13%
EC50 [12, 28]: > 5 µM
EC90 [12, 28]: > 5 µM
perc_max_measured [12, 24]: 103.374% and 130.763%
perc_min_measured [12, 24]: 64.505% and 89.964%
inhibition at 10 µM [13, 27]: -2%

Reference: paper doi:10.1101/2024.08.19.608619, “Discovery of potent SARS-CoV-2 nsp3 macrodomain inhibitors uncovers lack of translation to cellular antiviral response” (bioRxiv, 2024)
